Consider six compounds from patent publication US5316767A, “Whitening cosmetic composition” (priority 1990, dated 1994).

One series deals with B16-C melanoma cells. Nature of the series: Melanin formation inhibitory activity in B16-C melanoma cells (Experiment 2). The series is classed as cell-based, mouse. Here is the method:
After 2 ml of MEM medium (manufactured by Nissui Pharmaceutical Co.) (serum concentration of 5%) was added in a 6-well culture plate, mouse-derived B16-C melanoma cells were plated at 2×10^5 cells/well and test compounds were then separately added. B16-C melanoma cells were cultured at 37° C. in 5% CO2 incubator. On Day 3 and Day 5, the medium was exchanged and at the same time, the test compounds were separately added. On Day 7, the medium was removed. The cells were trypsinized and resuspended in PBS and pelleted by centrifugation. […] The protein content in the cells and the amount of melanin formed were determined, whereby the amount of melanin formed (μg) per protein content (mg) were calculated. The protein content and the amount of melanin formed were quantitatively determined by the method of Bradford et al. [Analytical Biochemistry, 72, 248-254 (1976)] and by measuring absorbance of the test solution at 470 nm [Cancer Research, 45, 1474-1478 (1985)], respectively.

Series [1] can be described thus: physchem. Conditions: water.
Series [2] can be described thus: physchem. The conditions noted are these: pH 6.5.
The nature of series [3]: physchem. Conditions: pH 6.5. This is another data set of the same source.
The nature of series [4]: Storage stability: residual rate after allowing to stand at 40° C. for 30 days.
Series [5] can be described thus: Heat stability: residual rate after heating at 100° C. for 20 minutes. Conditions: pH 6.5.
[6] abbreviates: 0.25 mM, first series (nothing added: 211.4 ± 11.45).
The mark [7] stands for this setting: 0.5 mM, first series (nothing added: 211.4 ± 11.45).
The mark [8] stands for this setting: 1.0 mM, first series (nothing added: 211.4 ± 11.45).

Structures are written as SMILES. Values after ≈ are worked out from the molar mass of the structure shown. Numbered stars: 1 amine (or outer) side, 2 acyl side, 3 side chain; on linkers, the order of the positions; unused ones are H or OH. Bridge positions count the residues as written; N and C are the ends. Square brackets hold non-standard residues; d marks the D form. Peptide text beside a SMILES is read from it. I, II: the chains in the order shown. γGlu = O=C(O)[C@H](CCC(=O)[*:2])N[*:1] A value given as a limit tells only on which side of the number the result lay.

On to `OC[C@H]1O[C@@H](Oc2ccc(O)cc2)[C@H](O)[C@@H](O)[C@@H]1O` [Arbutin], for which the results for the “Melanin Content/Protein Content” value with B16-C melanoma cells (setting [6]), in the series on B16-C melanoma cells (setting [7]) and with B16-C melanoma cells (setting [8]) were 108.7 ± 13.04 µg/mg, 89.2 ± 13.48 µg/mg and “growth inhibition”, respectively. The amount in solution in the series “physchem [1]” (solubility) came to 142 mg/mL (≈ 520 mM). Besides, in the series “physchem [2]”, the fraction remaining (commonly what is left of the initial amount, in per cent) at 20 min, 10000 µM is 100%. For the same compound, the amount remaining at 720 h, 10000 µM in the series “physchem [3]” is 100%.

Consider `N[C@@H](CCC(=O)N[C@@H](CS)C(=O)NCC(=O)O)C(=O)O` [Glutathione, γ-L-glutamyl-L-cysteinyl-glycine], for which the fraction remaining at 20 min, 10000 µM in the series “physchem [2]” is 70%. The amount remaining at 720 h, 10000 µM in the series “physchem [3]” is 0%.

On to `O=c1cc(CO)occ1O` [Kojic acid], for which the Coloration entry in series [4] (40° C., 30 days, pH 6.5, 10 mM) is on record as “colored”. Besides, in series [4] (pH 6.5), the fraction remaining at 720 h, 10000 µM was found to be 100%. The compound also displayed a fraction remaining at 20 min, 10000 µM in series [5] of 100%. The “Melanin Content/Protein Content” value is 233.7 ± 14.37 µg/mg with B16-C melanoma cells (setting [6]), 202.4 ± 11.49 µg/mg in the series on B16-C melanoma cells (setting [7]) and 188.6 ± 9.93 µg/mg in the series on B16-C melanoma cells (setting [8]). Further, the “Activity for inhibiting melanin formation as compared with γ-L-glutamyl-L-cysteine disulfide and oxidized glutathione” value with B16-C melanoma cells (Table 3) is reported as “poorer”. For the same compound, in “Water solubility”, the concentration in solution (solubility) came to 48.3 mg/mL (≈ 340 mM).

Take `CC(=O)N[C@@H](CCC(=O)N[C@@H](CSSC[C@H](NC(=O)CC[C@H](NC(C)=O)C(=O)O)C(=O)NCC(=O)O)C(=O)NCC(=O)O)C(=O)O` [N,N'-diacetyl-oxidized glutathione, N,N'-diacetyl oxidized glutathione] (I: Ac-[γGlu]-Cys-Gly-OH / II: Ac-[γGlu]-Cys-Gly-OH; disulfide I:2-II:2): the “Melanin Content/Protein Content” value in the series with B16-C melanoma cells (1.0 mM, second series (nothing added: 330.1 ± 22.5)) was determined as 221.4 ± 18.6 µg/mg; in the series on B16-C melanoma cells (2.0 mM, second series (nothing added: 330.1 ± 22.5)), 198.1 ± 8.5 µg/mg. In addition, the “Inhibition of melanin formation in B16-C melanoma cells” value in the series with B16-C melanoma cells (Table 3) is on record as “significantly inhibiting melanin formation”. Besides, in “physchem [1]”, the solubility (in general, how much of the substance goes into solution per volume) was greater than 200 mg/mL. In addition, the amount remaining at 20 min, 10000 µM in the series “physchem [2]” was found to be 100%. This compound also came in with an amount remaining at 720 h, 10000 µM in the series “physchem [3]” of 100%.

On to `N[C@@H](CCC(=O)N[C@@H](CSSC[C@H](NC(=O)CC[C@H](N)C(=O)O)C(=O)O)C(=O)O)C(=O)O` [γ-L-glutamyl-L-cysteine disulfide], for which the “Melanin Content/Protein Content” value with B16-C melanoma cells (setting [7]) is 189.3 ± 10.56 µg/mg; in the series with B16-C melanoma cells (setting [8]) it was 155.6 ± 7.68 µg/mg; with B16-C melanoma cells (2.0 mM, first series (nothing added: 211.4 ± 11.45)), 154.7 ± 12.16 µg/mg. Moreover, the “Inhibition of melanin formation in B16-C melanoma cells” value with B16-C melanoma cells (Table 3) was “significantly inhibiting melanin formation”. Also, the solubility in the series “physchem [1]” is greater than 554 mg/mL. This compound came in with a fraction remaining at 20 min, 10000 µM in the series “physchem [2]” of 100%. In “physchem [3]”, the amount remaining at 720 h, 10000 µM turned out to be 100%.

In the case of `N[C@@H](CCC(=O)N[C@@H](CSSC[C@H](N)C(=O)O)C(=O)O)C(=O)O` [γ-L-glutamyl-L-cystine], the solubility in “physchem [1]” was greater than 742 mg/mL. The same compound yielded a fraction remaining at 20 min, 10000 µM in the series “physchem [2]” of 100%. In addition, the share remaining at 720 h, 10000 µM in “physchem [3]” came out at 100%.
